Assay results published in ChEMBL document CHEMBL1140242, “Metabolism investigation leading to novel drug design: orally active prostacyclin mimetics. Part 4” (Bioorg Med Chem Lett, 2005).
Each block holds one compound with its values, some of them ahead of it.

Tests used:
[1] = Maximum (Peak) plasma drug concentration after single-dose administration at a dose of 0.32 (mg/kg) in rat; format: ADME, organism-based; parameters: dose 0.32 mg/kg
[2] = Inhibition of ADP-induced aggregation of monkey platelets; format: functional; conditions: Cercopithecidae
Rattus norvegicus [3] = experiment: Effective dose for in vivo activity in D-GalN/LPS-induced rat hepatic injury model; format: functional
[4] = Bioavailability of the drug after […] administration at a dose of 0.32 (mg/kg) in rat; format: ADME, organism-based; conditions: in vivo, iv, read-out: Ba
[5] = Elimination half-life after peroral administration at a dose of 0.32 (mg/kg) in rat; format: ADME, organism-based; conditions: in vivo, po
Homo sapiens = species: Homo sapiens; experiment: Inhibition of ADP-induced aggregation of human platelets; format: functional, organism-based
Prostacyclin receptor = Prostacyclin receptor (Homo sapiens, UniProt P43119); experiment: Inhibition of [3H]-Iloprost binding to human Prostanoid IP receptor
Chain of Prostacyclin receptor (P43119 whole entry): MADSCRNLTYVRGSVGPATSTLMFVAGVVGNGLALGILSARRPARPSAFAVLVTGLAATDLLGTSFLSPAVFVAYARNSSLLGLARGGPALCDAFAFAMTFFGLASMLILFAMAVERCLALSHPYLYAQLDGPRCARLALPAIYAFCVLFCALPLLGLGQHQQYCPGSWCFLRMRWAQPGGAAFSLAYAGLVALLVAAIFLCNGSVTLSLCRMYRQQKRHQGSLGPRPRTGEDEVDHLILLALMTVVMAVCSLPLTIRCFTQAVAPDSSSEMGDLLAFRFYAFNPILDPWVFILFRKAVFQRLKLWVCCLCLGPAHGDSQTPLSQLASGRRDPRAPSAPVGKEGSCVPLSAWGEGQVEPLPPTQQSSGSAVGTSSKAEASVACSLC

[6] = molecular target: T1, Prostaglandin D2 receptor (Homo sapiens, UniProt Q13258); experiment: Inhibition of [3H]PGD-2 binding to human Prostanoid DP receptor
T1 sequence (Q13258 whole entry): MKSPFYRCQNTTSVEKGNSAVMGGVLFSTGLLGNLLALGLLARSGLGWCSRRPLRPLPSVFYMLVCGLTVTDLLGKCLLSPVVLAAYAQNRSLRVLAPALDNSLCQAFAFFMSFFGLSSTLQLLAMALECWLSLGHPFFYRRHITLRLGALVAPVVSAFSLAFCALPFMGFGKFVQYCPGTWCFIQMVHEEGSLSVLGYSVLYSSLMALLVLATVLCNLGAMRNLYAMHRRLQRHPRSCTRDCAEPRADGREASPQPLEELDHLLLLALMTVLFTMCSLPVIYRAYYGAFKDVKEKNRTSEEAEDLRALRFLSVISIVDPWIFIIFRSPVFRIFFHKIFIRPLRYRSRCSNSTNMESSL

[7] = molecular target: Prostaglandin F2-alpha receptor (Homo sapiens, UniProt P43088); experiment: Inhibition of [3H]-PGF-2 binding to human Prostanoid FP receptor
Chain of Prostaglandin F2-alpha receptor (P43088 whole entry): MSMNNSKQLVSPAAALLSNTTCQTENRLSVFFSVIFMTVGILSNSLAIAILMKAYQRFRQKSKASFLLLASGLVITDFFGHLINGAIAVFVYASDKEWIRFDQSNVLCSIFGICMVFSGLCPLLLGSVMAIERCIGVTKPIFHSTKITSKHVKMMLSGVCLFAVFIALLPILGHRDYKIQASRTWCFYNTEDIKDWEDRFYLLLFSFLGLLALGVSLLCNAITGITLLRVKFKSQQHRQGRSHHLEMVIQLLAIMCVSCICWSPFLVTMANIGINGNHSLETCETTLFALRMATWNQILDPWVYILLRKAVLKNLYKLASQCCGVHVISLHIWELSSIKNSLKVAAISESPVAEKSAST

[8] = molecular target: T2, Prostaglandin E2 receptor EP3 subtype (Homo sapiens, UniProt P43115); experiment: Inhibition of [3H]-PGE-2 binding to Prostanoid EP3 receptor
T2 sequence (P43115 whole entry): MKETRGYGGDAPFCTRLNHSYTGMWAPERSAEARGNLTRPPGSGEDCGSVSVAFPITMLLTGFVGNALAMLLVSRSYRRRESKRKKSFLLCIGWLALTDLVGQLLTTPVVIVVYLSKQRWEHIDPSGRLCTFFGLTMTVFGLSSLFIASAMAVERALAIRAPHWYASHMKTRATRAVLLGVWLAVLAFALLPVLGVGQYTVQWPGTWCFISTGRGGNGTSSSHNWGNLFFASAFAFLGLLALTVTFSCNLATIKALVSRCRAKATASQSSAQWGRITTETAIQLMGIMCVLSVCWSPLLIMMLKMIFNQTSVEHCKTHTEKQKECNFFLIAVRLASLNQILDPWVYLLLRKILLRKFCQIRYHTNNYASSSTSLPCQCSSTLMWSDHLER

[9] = Area Under Plasma concentration-time curve after peroral administration at a dose of 1 (mg/kg) in rat; format: ADME, organism-based; conditions: po
Thromboxane A2 receptor = molecular target: T3, Thromboxane A2 receptor (Homo sapiens, UniProt P21731); experiment: Inhibition of [3H]SQ-29,548 binding to human Prostanoid TP receptor
T3 sequence (P21731 whole entry): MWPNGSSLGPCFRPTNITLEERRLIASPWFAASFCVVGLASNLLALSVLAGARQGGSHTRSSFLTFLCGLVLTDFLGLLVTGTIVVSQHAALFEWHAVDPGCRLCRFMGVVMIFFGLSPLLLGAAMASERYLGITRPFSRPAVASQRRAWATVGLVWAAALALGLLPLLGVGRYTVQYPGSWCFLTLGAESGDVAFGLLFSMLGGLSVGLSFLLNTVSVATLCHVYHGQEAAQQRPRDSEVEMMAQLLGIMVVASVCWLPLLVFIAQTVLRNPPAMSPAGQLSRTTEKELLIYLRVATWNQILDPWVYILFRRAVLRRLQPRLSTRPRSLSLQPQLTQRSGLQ

[10] = Maximum (Peak) plasma drug concentration after single-dose administration at a dose of 1 (mg/kg) in rat; format: ADME, organism-based; parameters: dose 1 mg/kg
[11] = molecular target: Prostaglandin E2 receptor EP4 subtype (Homo sapiens, UniProt P35408); experiment: Inhibition of [3H]PGE-2 binding to Prostanoid EP4 receptor
Chain of Prostaglandin E2 receptor EP4 subtype (P35408 whole entry): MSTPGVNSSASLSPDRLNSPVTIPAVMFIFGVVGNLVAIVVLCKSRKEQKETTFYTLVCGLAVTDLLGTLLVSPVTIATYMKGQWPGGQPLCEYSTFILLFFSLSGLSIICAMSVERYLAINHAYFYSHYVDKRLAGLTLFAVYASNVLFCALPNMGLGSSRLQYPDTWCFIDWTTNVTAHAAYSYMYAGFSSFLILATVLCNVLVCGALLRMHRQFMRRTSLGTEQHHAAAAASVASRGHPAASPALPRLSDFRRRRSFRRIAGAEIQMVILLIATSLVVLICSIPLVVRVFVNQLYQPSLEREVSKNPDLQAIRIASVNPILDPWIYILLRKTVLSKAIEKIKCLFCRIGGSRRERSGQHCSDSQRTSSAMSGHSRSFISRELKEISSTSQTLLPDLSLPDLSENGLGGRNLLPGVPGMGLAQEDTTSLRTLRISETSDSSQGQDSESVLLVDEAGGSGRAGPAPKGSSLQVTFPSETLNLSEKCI

[12] = Bioavailability of the drug after […] administration at a dose of 1 (mg/kg) in rat; format: ADME, organism-based; conditions: in vivo, iv, read-out: Ba
[13] = molecular target: T4, Prostaglandin E2 receptor EP1 subtype (Homo sapiens, UniProt P34995); experiment: Inhibition of [3H]PGE-2 binding to Prostanoid EP1 receptor
T4 sequence (P34995 whole entry): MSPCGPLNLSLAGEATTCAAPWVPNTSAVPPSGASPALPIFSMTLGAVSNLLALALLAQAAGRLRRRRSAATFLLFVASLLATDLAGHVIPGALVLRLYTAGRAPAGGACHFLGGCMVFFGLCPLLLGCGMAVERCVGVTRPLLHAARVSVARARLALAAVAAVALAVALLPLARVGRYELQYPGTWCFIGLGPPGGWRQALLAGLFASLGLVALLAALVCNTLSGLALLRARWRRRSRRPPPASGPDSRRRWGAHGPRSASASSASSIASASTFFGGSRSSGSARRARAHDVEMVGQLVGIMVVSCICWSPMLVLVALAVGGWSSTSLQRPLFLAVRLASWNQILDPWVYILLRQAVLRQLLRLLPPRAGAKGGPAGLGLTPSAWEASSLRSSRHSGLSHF

[14] = molecular target: Prostaglandin E2 receptor EP2 subtype (Homo sapiens, UniProt P43116); experiment: Inhibition of [3H]PGE-2 binding to Prostanoid EP2 receptor
Chain of Prostaglandin E2 receptor EP2 subtype (P43116 whole entry): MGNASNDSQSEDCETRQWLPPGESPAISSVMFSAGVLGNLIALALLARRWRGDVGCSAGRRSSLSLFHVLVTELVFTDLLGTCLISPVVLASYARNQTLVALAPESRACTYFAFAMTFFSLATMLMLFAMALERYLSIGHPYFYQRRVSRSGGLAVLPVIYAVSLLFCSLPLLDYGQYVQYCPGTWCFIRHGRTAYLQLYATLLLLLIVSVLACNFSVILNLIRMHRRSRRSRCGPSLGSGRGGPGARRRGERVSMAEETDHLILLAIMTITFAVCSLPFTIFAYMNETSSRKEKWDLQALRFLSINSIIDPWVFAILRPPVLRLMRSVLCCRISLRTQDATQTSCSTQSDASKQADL

Rattus norvegicus [15] = species: Rattus norvegicus; experiment: Inhibition of ADP-induced aggregation of rat platelets; format: functional, organism-based
[16] = Total body clearance of drug from the plasma after i.v. administration at a dose of 1 (mg/kg) in rat; format: ADME, organism-based; conditions: iv, read-out: CLtot
Canis familiaris = species: Canis familiaris; experiment: Inhibition of ADP-induced aggregation of dog platelets; format: functional; conditions: Canis lupus familiaris
[17] = Total body clearance of drug from the plasma after i.v. administration at a dose of 0.32 (mg/kg) in rat; format: ADME, organism-based; conditions: iv, read-out: CLtot
[18] = Area Under Plasma concentration-time curve after peroral administration at a dose of 0.32 (mg/kg) in rat; format: ADME, organism-based; conditions: po

- Cmax [1]: 16.4 ng/mL
- IC50 [2]: 188 nM
- bioavailability [4]: 50%
- half-life [5]: 6.6 h
SMILES: O=C([O-])COc1cccc(C[C@@H]2CCCC=C2c2nc(-c3ccccc3)c(-c3ccccc3)o2)c1.[Na+]
- ED50 (Rattus norvegicus [3]): 0.032 mg/kg

- IC50 (Homo sapiens): 116 nM
SMILES: O=C(O)COc1cccc(C[C@@H]2CCCC(O)=C2c2nc(-c3ccccc3)c(-c3ccccc3)o2)c1

The remaining lines, values behind:

SMILES: O=C(O)COc1cccc(C[C@@H]2CCC[C@H]3O[C@@]23c2nc(-c3ccccc3)c(-c3ccccc3)o2)c1
- IC50 (Homo sapiens): 12 nM

SMILES: O=C([O-])COc1cccc(C[C@@H]2CCC[C@@H]3O[C@]23c2nc(-c3ccccc3)c(-c3ccccc3)o2)c1.[Na+]
- Ki (Prostacyclin receptor): 6.1 nM
- Ki [6]: 2900 nM
- IC50 [2]: 12 nM
- Ki [7]: > 10000 nM
- Ki [8]: 3200 nM
- IC50 (Homo sapiens): 5.8 nM
- AUC [9]: 168 ng·h/mL
- Ki (Thromboxane A2 receptor): 930 nM
- Cmax [10]: 67.9 ng/mL
- Ki [11]: 7200 nM
- bioavailability [12]: 20%
- Ki [13]: > 10000 nM
- Ki [14]: 1400 nM
- IC50 (Rattus norvegicus [15]): 300 nM
- clearance [16]: 18.6 mL/min/kg
- half-life [5]: 26.9 h
- IC50 (Canis familiaris): 1470 nM

SMILES: O=C(O)COc1cccc(C[C@@H]2CCCC3OC32c2nc(-c3ccccc3)c(-c3ccccc3)o2)c1 (stereo not given in full)
- IC50 (Homo sapiens): 14 nM

SMILES: O=C([O-])COc1cccc(C[C@@H]2CCC=C2c2nc(-c3ccccc3)c(-c3ccccc3)o2)c1.[Na+]
- Cmax [1]: 45.2 ng/mL
- Ki (Prostacyclin receptor): 41 nM
- clearance [17]: 9.19 mL/min/kg
- IC50 (Homo sapiens): 56 nM
- ED50 (Rattus norvegicus [3]): 1 mg/kg
- AUC [18]: 42.5 ng·h/mL
- bioavailability [4]: 78%
- IC50 (Rattus norvegicus [15]): 2800 nM
- half-life [5]: 17 h

SMILES: O=C(O)COc1cccc(C[C@@H]2CCC=CC2(O)c2nc(-c3ccccc3)c(-c3ccccc3)o2)c1 (stereo not given in full)
- IC50 (Homo sapiens): 98 nM
